# Source: patent US10517867B2, “Posaconazole derivative, pharmaceutical composition and use thereof” (priority 2016, dated 2019)
# Assay: Determination of solubility in deionized water (HPLC, external standard)
# Settings: 25 °C, water, thermodynamic from solid
row,Compound,solubility at 30 min
1,CC[C@@H]([C@H](C)O)n1ncn(-c2ccc(N3CCN(c4ccc(OC[C@@H]5CO[C@@](Cn6c[n+](C(C)OC(=O)NC7O[C@H](CO)[C@H](O)[C@H]7OC(=O)CNC)cn6)(c6ccc(F)cc6F)C5)cc4)CC3)cc2)c1=O (stereo partly drawn) [ST0028],35.7 mg/mL
2,CC[C@@H]([C@H](C)OC(=O)OC(C)OC(=O)CCCCCCOS(=O)(=O)[O-])n1ncn(-c2ccc(N3CCN(c4ccc(OC[C@@H]5CO[C@@](Cn6cncn6)(c6ccc(F)cc6F)C5)cc4)CC3)cc2)c1=O.[Na+] (stereo partly drawn) [ST0081],> 50 mg/mL
3,CC[C@@H]([C@H](C)O)n1ncn(-c2ccc(N3CCN(c4ccc(OC[C@@H]5CO[C@@](Cn6c[n+](C(C)OC(=O)OCCOP(=O)(O)O)cn6)(c6ccc(F)cc6F)C5)cc4)CC3)cc2)c1=O (stereo partly drawn) [ST0042],> 50 mg/mL
4,CC[C@@H](C(C)OC(=O)OC(C)OC(=O)CNS(=O)(=O)[O-])n1ncn(-c2ccc(N3CCN(c4ccc(OC[C@@H]5CO[C@@](Cn6cncn6)(c6ccc(F)cc6F)C5)cc4)CC3)cc2)c1=O.[Na+] (stereo partly drawn) [ST0057],> 50 mg/mL
5,CC[C@@H]([C@H](C)OC(=O)OC(C)OC(=O)COP(=O)([O-])[O-])n1ncn(-c2ccc(N3CCN(c4ccc(OC[C@@H]5CO[C@@](Cn6cncn6)(c6ccc(F)cc6F)C5)cc4)CC3)cc2)c1=O.[Na+].[Na+] (stereo partly drawn) [ST0065],> 50 mg/mL
6,CC[C@@H]([C@H](C)O)n1ncn(-c2ccc(N3CCN(c4ccc(OC[C@@H]5CO[C@@](Cn6c[n+](C(C)OC(=O)N(C)c7ncccc7COC(=O)[C@@H](N)CCCNC)cn6)(c6ccc(F)cc6F)C5)cc4)CC3)cc2)c1=O (stereo partly drawn) [ST0038],> 50 mg/mL
7,CC[C@@H]([C@H](C)O)n1ncn(-c2ccc(N3CCN(c4ccc(OC[C@@H]5CO[C@@](Cn6c[n+](C(C)OC(=O)N(C)c7ncccc7CN)cn6)(c6ccc(F)cc6F)C5)cc4)CC3)cc2)c1=O (stereo partly drawn) [ST0032],30.5 mg/mL
8,CC[C@@H]([C@H](C)OS(=O)(=O)[O-])n1ncn(-c2ccc(N3CCN(c4ccc(OC[C@@H]5CO[C@@](Cn6cncn6)(c6ccc(F)cc6F)C5)cc4)CC3)cc2)c1=O.[Na+] [ST0095],> 50 mg/mL
9,CC[C@@H]([C@H](C)O)n1ncn(-c2ccc(N3CCN(c4ccc(OC[C@@H]5CO[C@@](Cn6c[n+](C(C)OC(=O)N(C)c7ncccc7CNC)cn6)(c6ccc(F)cc6F)C5)cc4)CC3)cc2)c1=O (stereo partly drawn) [ST0037],> 50 mg/mL
10,CC[C@@H](C(C)OC(=O)OC(C)OC(=O)CCOS(=O)(=O)[O-])n1ncn(-c2ccc(N3CCN(c4ccc(OC[C@@H]5CO[C@@](Cn6cncn6)(c6ccc(F)cc6F)C5)cc4)CC3)cc2)c1=O.[Na+] (stereo partly drawn) [ST0076],> 50 mg/mL
11,CC[C@@H](C(C)OC(=O)OC(C)OC(=O)CCCCOP(=O)([O-])[O-])n1ncn(-c2ccc(N3CCN(c4ccc(OC[C@@H]5CO[C@@](Cn6cncn6)(c6ccc(F)cc6F)C5)cc4)CC3)cc2)c1=O.[Na+].[Na+] (stereo partly drawn) [ST0068],> 50 mg/mL
12,CC[C@@H](C(C)OC(=O)OC(C)OC(=O)CCCCCCCOP(=O)([O-])[O-])n1ncn(-c2ccc(N3CCN(c4ccc(OC[C@@H]5CO[C@@](Cn6cncn6)(c6ccc(F)cc6F)C5)cc4)CC3)cc2)c1=O.[Na+].[Na+] (stereo partly drawn) [ST0069],43.7 mg/mL
13,CC[C@@H]([C@H](C)OC(=O)OC(C)OC(=O)CCCOP(=O)([O-])[O-])n1ncn(-c2ccc(N3CCN(c4ccc(OC[C@@H]5CO[C@@](Cn6cncn6)(c6ccc(F)cc6F)C5)cc4)CC3)cc2)c1=O.[Na+].[Na+] (stereo partly drawn) [ST0062],> 50 mg/mL
14,CC[C@@H](C(C)OC(=O)OC(C)OC(=O)COS(=O)(=O)[O-])n1ncn(-c2ccc(N3CCN(c4ccc(OC[C@@H]5CO[C@@](Cn6cncn6)(c6ccc(F)cc6F)C5)cc4)CC3)cc2)c1=O.[Na+] (stereo partly drawn) [ST0075],> 50 mg/mL
15,CC[C@@H]([C@H](C)OC(=O)OCCOCCOCCOP(=O)([O-])[O-])n1ncn(-c2ccc(N3CCN(c4ccc(OC[C@@H]5CO[C@@](Cn6cncn6)(c6ccc(F)cc6F)C5)cc4)CC3)cc2)c1=O.[Na+].[Na+] [ST0061],> 50 mg/mL
16,CC[C@@H]([C@H](C)OC(=O)OCCOP(=O)([O-])[O-])n1ncn(-c2ccc(N3CCN(c4ccc(OC[C@@H]5CO[C@@](Cn6cncn6)(c6ccc(F)cc6F)C5)cc4)CC3)cc2)c1=O.[Na+].[Na+] [ST0059],> 50 mg/mL
17,CC[C@@H]([C@H](C)O)n1ncn(-c2ccc(N3CCN(c4ccc(OC[C@@H]5CO[C@@](Cn6c[n+](C(C)OC(=O)N(C)c7ncccc7COC(=O)[C@@H](N)CCNC)cn6)(c6ccc(F)cc6F)C5)cc4)CC3)cc2)c1=O (stereo partly drawn) [ST0040],> 50 mg/mL
18,CC[C@@H]([C@H](C)OC(=O)OC(C)OC(=O)C(O)COP(=O)([O-])[O-])n1ncn(-c2ccc(N3CCN(c4ccc(OC[C@@H]5CO[C@@](Cn6cncn6)(c6ccc(F)cc6F)C5)cc4)CC3)cc2)c1=O.[Na+].[Na+] (stereo partly drawn) [ST0089],25.2 mg/mL
19,CC[C@@H](C(C)OC(=O)OC(C)OC(=O)CN(C)S(=O)(=O)[O-])n1ncn(-c2ccc(N3CCN(c4ccc(OC[C@@H]5CO[C@@](Cn6cncn6)(c6ccc(F)cc6F)C5)cc4)CC3)cc2)c1=O.[Na+] (stereo partly drawn) [ST0056],> 50 mg/mL
20,CC[C@@H]([C@H](C)O)n1ncn(-c2ccc(N3CCN(c4ccc(OC[C@@H]5CO[C@@](Cn6c[n+](C(C)OC(=O)SC[C@H](N)C(=O)O)cn6)(c6ccc(F)cc6F)C5)cc4)CC3)cc2)c1=O (stereo partly drawn) [ST0030],21.8 mg/mL
21,CC[C@@H](C(C)OC(=O)OC(C)OC(=O)CCCCCCCCOP(=O)([O-])[O-])n1ncn(-c2ccc(N3CCN(c4ccc(OC[C@@H]5CO[C@@](Cn6cncn6)(c6ccc(F)cc6F)C5)cc4)CC3)cc2)c1=O.[Na+].[Na+] (stereo partly drawn) [ST0071],23.4 mg/mL

# Same assay, conditions: 25±2° C., after 30 min
row,Compound,Solubility
1,CC[C@@H]([C@H](C)OC(=O)OC(C)OC(=O)CN(C)P(=O)([O-])[O-])n1ncn(-c2ccc(N3CCN(c4ccc(OC[C@@H]5CO[C@@](Cn6cncn6)(c6ccc(F)cc6F)C5)cc4)CC3)cc2)c1=O.[Na+].[Na+] (stereo partly drawn) [ST0054],40.9 mg/mL
2,CC[C@@H]([C@H](C)OC(=O)OC(C)OC(=O)CNP(=O)([O-])[O-])n1ncn(-c2ccc(N3CCN(c4ccc(OC[C@@H]5CO[C@@](Cn6cncn6)(c6ccc(F)cc6F)C5)cc4)CC3)cc2)c1=O.[Na+].[Na+] (stereo partly drawn) [ST0055],35.4 mg/mL
3,CC[C@@H]([C@H](C)OC(=O)OCCOCCOP(=O)([O-])[O-])n1ncn(-c2ccc(N3CCN(c4ccc(OC[C@@H]5CO[C@@](Cn6cncn6)(c6ccc(F)cc6F)C5)cc4)CC3)cc2)c1=O.[Na+].[Na+] [ST0060],>50 mg/mL

# Assay: Solid stability test (stability chamber, HPLC total impurity)
# Type: physicochemical
# Settings: not given
row,Compound,Total impurity increment in 30 days
1,CC[C@@H]([C@H](C)O)n1ncn(-c2ccc(N3CCN(c4ccc(OC[C@@H]5CO[C@@](Cn6c[n+](C(C)OC(=O)NC7O[C@H](CO)[C@H](O)[C@H]7OC(=O)CNC)cn6)(c6ccc(F)cc6F)C5)cc4)CC3)cc2)c1=O (stereo partly drawn) [ST0028],1.62%
2,CC[C@@H]([C@H](C)O)n1ncn(-c2ccc(N3CCN(c4ccc(OC[C@@H]5CO[C@@](Cn6c[n+](C(C)OC(=O)N(C)c7ncccc7COC(=O)[C@@H](N)CCCNC)cn6)(c6ccc(F)cc6F)C5)cc4)CC3)cc2)c1=O (stereo partly drawn) [ST0038],1.06%

# Same assay, conditions: solid, packaged, 25° C.±2° C., relative humidity 60%±2%
row,Compound,Total impurity increment in 30 days
1,CC[C@@H]([C@H](C)O)n1ncn(-c2ccc(N3CCN(c4ccc(OC[C@@H]5CO[C@@](Cn6c[n+](C(C)OC(=O)OCCS)cn6)(c6ccc(F)cc6F)C5)cc4)CC3)cc2)c1=O (stereo partly drawn) [ST0036],0.87%
2,CC[C@@H]([C@H](C)O)n1ncn(-c2ccc(N3CCN(c4ccc(OC[C@@H]5CO[C@@](Cn6c[n+](C(C)OC(=O)OCCOP(=O)(O)O)cn6)(c6ccc(F)cc6F)C5)cc4)CC3)cc2)c1=O (stereo partly drawn) [ST0042],1.05%
3,CC[C@@H]([C@H](C)O)n1ncn(-c2ccc(N3CCN(c4ccc(OC[C@@H]5CO[C@@](Cn6c[n+](C(C)OC(=O)SCC(=O)[O-])cn6)(c6ccc(F)cc6F)C5)cc4)CC3)cc2)c1=O.[Cl-].[Na+] (stereo partly drawn) [ST0034],1.85%
4,CC[C@@H](C(C)OC(=O)OC(C)OC(=O)CNS(=O)(=O)[O-])n1ncn(-c2ccc(N3CCN(c4ccc(OC[C@@H]5CO[C@@](Cn6cncn6)(c6ccc(F)cc6F)C5)cc4)CC3)cc2)c1=O.[Na+] (stereo partly drawn) [ST0057],1.96%
5,CC[C@@H]([C@H](C)OC(=O)OC(C)OC(=O)CNP(=O)([O-])[O-])n1ncn(-c2ccc(N3CCN(c4ccc(OC[C@@H]5CO[C@@](Cn6cncn6)(c6ccc(F)cc6F)C5)cc4)CC3)cc2)c1=O.[Na+].[Na+] (stereo partly drawn) [ST0055],0.85%
6,CC[C@@H](C(C)OC(=O)OC(C)OC(=O)CN(C)C)n1ncn(-c2ccc(N3CCN(c4ccc(OC[C@@H]5CO[C@@](Cn6cncn6)(c6ccc(F)cc6F)C5)cc4)CC3)cc2)c1=O (stereo partly drawn) [Compound 0058],0.47%
7,CC[C@@H]([C@H](C)O)n1ncn(-c2ccc(N3CCN(c4ccc(OC[C@@H]5CO[C@@](Cn6c[n+](CC(=O)[O-])cn6)(c6ccc(F)cc6F)C5)cc4)CC3)cc2)c1=O.[Cl-].[Na+] [ST0021],0.97%
8,CC[C@@H]([C@H](C)O)n1ncn(-c2ccc(N3CCN(c4ccc(OC[C@@H]5CO[C@@](Cn6c[n+](C(C)OC(=O)N(C)c7ncccc7COC(=O)CN)cn6)(c6ccc(F)cc6F)C5)cc4)CC3)cc2)c1=O (stereo partly drawn) [ST0101],0.47%
9,CC[C@@H]([C@H](C)O)n1ncn(-c2ccc(N3CCN(c4ccc(OC[C@@H]5CO[C@@](Cn6c[n+](C(C)OC(=O)N(C)c7ncccc7COC(=O)[C@@H](N)CCNC)cn6)(c6ccc(F)cc6F)C5)cc4)CC3)cc2)c1=O (stereo partly drawn) [ST0040],1.34%
10,CC[C@@H]([C@H](C)O)n1ncn(-c2ccc(N3CCN(c4ccc(OC[C@@H]5CO[C@@](Cn6c[n+](C(C)OC(=O)N(C)c7ncccc7COC(=O)[C@@H](N)[C@@H](C)O)cn6)(c6ccc(F)cc6F)C5)cc4)CC3)cc2)c1=O (stereo partly drawn) [ST0106],0.32%
11,CC[C@@H]([C@H](C)O)n1ncn(-c2ccc(N3CCN(c4ccc(OC[C@@H]5CO[C@@](Cn6c[n+](C(C)OC(=O)N(C)c7ncccc7COC(=O)[C@@H](N)CCCCN)cn6)(c6ccc(F)cc6F)C5)cc4)CC3)cc2)c1=O (stereo partly drawn) [ST0104],0.27%
12,CC[C@@H]([C@H](C)OC(=O)OCCOCCOP(=O)([O-])[O-])n1ncn(-c2ccc(N3CCN(c4ccc(OC[C@@H]5CO[C@@](Cn6cncn6)(c6ccc(F)cc6F)C5)cc4)CC3)cc2)c1=O.[Na+].[Na+] [ST0060],0.83%
13,CC[C@@H]([C@H](C)O)n1ncn(-c2ccc(N3CCN(c4ccc(OC[C@@H]5CO[C@@](Cn6c[n+](C(C)OC(=O)N(C)c7ncccc7COC(=O)[C@@H](N)CCC(N)=O)cn6)(c6ccc(F)cc6F)C5)cc4)CC3)cc2)c1=O (stereo partly drawn) [ST0102],0.36%
14,CC[C@@H]([C@H](C)O)n1ncn(-c2ccc(N3CCN(c4ccc(OC[C@@H]5CO[C@@](Cn6c[n+](C(C)OC(=O)N(C)c7ncccc7COC(=O)[C@@H](N)CC(N)=O)cn6)(c6ccc(F)cc6F)C5)cc4)CC3)cc2)c1=O (stereo partly drawn) [ST0103],0.29%
15,CC[C@@H]([C@H](C)O)n1ncn(-c2ccc(N3CCN(c4ccc(OC[C@@H]5CO[C@@](Cn6c[n+](C(C)OC(=O)N(C)c7ncccc7COC(=O)[C@@H](N)CO)cn6)(c6ccc(F)cc6F)C5)cc4)CC3)cc2)c1=O (stereo partly drawn) [ST0105],0.34%
16,CC[C@@H]([C@H](C)OC(=O)OC(C)OC(=O)CC(=O)[O-])n1ncn(-c2ccc(N3CCN(c4ccc(OC[C@@H]5CO[C@@](Cn6cncn6)(c6ccc(F)cc6F)C5)cc4)CC3)cc2)c1=O.[Na+] (stereo partly drawn) [ST0048],0.95%
